# Measured values published in patent publication US20190136188A1, “4HPR AND ITS USE IN THE CULTURING OF HEMATOPOIETIC STEM CELLS” (UNIVERSITY HEALTH NETWORK, priority 2016, published 2019).
# Columns and labels:
# lin- CB cells = assay: RNA-sequencing gene set enrichment; format: cell-based, human; settings: 4HPR vs Ctrl
# From the text: RNA from 3 pools of Lin− CB cells treated with vehicle control, 4HPR, UM171+SR1 or the triple combination of 4HPR+UM171+SR1 for 2 days were subjected to RNA-sequencing without amplification on the Illumina HiSeq 2500. (A) Functional enrichment map of gene sets enriched (red) by 4HPR treatment including or enriched by Ctrl treatment (blue) at day 2.
# To elucidate the genetic pathways enriched by 4HPR treatment in human CB that may contribute to preserving HSC function in ex vivo expansion alone or in combination with UM171 and SR1, we performed RNA-sequencing of 3 pools of lin-CB at day 2 and day 4 following treatment with all four treatment groups. To avoid amplification bias, RNA-seq was performed on samples without amplification. […] The latter is known to be regulated by autophagy (Singh, Nature, 2009).
# [1] = tested on: CD34+CD38- (stem) and CD34+CD38+ (prog) cells; assay: cyto-ID flow cytometry (autophagic flux); format: cell-based, human; settings: day 2
# Procedure: (A) Representative mmunofluorescence images taken by confocal microscopy for DAPI (blue) and LC3II staining (green) for CD34+CD38− cells (stem) following 2 days of treatment with DMSO control or 2 uM 4HPR with and without the autophagy inhibitor baflomycin A1 (BAF) to assay for basal autophagy and autophagic flux. (B) Quantitation of LC3II foci area as a percentage of total cell area for stem and prog (CD34+38+) cells from three independent CB using R and Image J software. (C) LCII foci area is increased with 4HPR treatment relative to control in the presence of BAF only in stem populations and not Prog populations. (D) Representative flow cytometry histogram plot of cyto-ID fluorescence intensity of control (black) and 4HPR (green) treated stem cells to assay for autophagic flux. Lower mean fluorescence intensity (MFI) indicates more turnover of autophagosomes and thus increased autophagic flux. […] (F) Cytokine withdrawal for 3 hours activates autophagic flux in CB stem cells to similar levels as 2 uM 4HPR as assayed by cyto-ID flow cytometry at day 2 post-treatment (n=3).
# (B). […] This difference in mitochondrial content is lost by day 3 post culture (See FIG. 3K).
# We hypothesize that such selective enhancement of CFC cloning efficiency with 4HPR treatment is a result of activating autophagy in HSC in human CB. […]
structure (smiles),measurement,setting,value
"CC1=C(/C=C/C(C)=C/C=C/C(C)=C/C(=O)Nc2ccc(O)cc2)C(C)(C)CCC1 [4HPR, N-(4hydroxyphenyl)retinamide]",ER stress and UPR gene sets,lin- CB cells,upregulates ER stress and UPR gene sets
same,autophagy gene sets,lin- CB cells,enriched for autophagy gene sets including mitophagy
same,ceramide/sphingolipid biosynthesis gene sets,lin- CB cells,enrichment of ceramide/sphingolipid biosynthesis gene sets
same,cholesterol/sterol biosynthetic pathways,lin- CB cells,decrease in cholesterol/sterol biosythetic pathways
same,autophagic flux by cyto-ID,"[1]; 0.2 uM or 2 uM 4HPR vs vehicle, stem vs prog",only significantly induced in stem but not prog cells
same,autophagy activated by cytokine withdrawal (cytoID),"[1]; CB stem cells, 3 hour cytokine withdrawal",further enhanced in the presence of 4HPR
